Source: patent publication US20100168175A1, “ATPENINS” (priority 2008, published 2010)
Where two headings read alike, the source gives them in different places.

Columns and labels:
[1] = tested on: Phytophthora infestans; experiment: whole plant or invertebrate; assay type: in vivo; details: in Solanum lycopersicum, 168 h, read-out: Efficacy in %
[2] = tested on: Alternaria solani; experiment: Alternaria test (tomato)/protective; assay type: in vivo; details: young tomato plants, protective spray, application rate 500 (in ppm g/ha [sic]), evaluation 7 days after inoculation; 0% = control, 100% = no infection
[3] = tested on: Sphaerotheca fuliginea; experiment: Sphaerotheca test (cucumber)/protective; assay type: in vivo; details: Podosphaera fuliginea, 168 h, read-out: Efficacy in %
[4] = log P by HPLC on a reversed-phase column (C18), EEC Directive 79/831 Annex V.A8; assay type: physicochemical; details: reversed-phase HPLC column (Kromasil 100 C18), H3PO4
Method: The stated log P values were determined in accordance with EEC Directive 79/831 Annex V.A8 by HPLC (High Performance Liquid Chromatography) on a reversed-phase column (C18).
HP1100 LC System (UV/DAD); Kromasil 100 C18, 3.5 μm, 75×2.0 mm; mobile phase A: acetonitrile (0.1% formic acid); mobile phase B: water (0.09% formic acid); linear gradient from 10% acetonitrile to 95% acetonitrile over 8.5 min, then 95% acetonitrile for a further 3.5 min; oven temperature 43° C.; flow rate: 0.5 ml/min
HP1100 LC System (UV/DAD); Kromasil 100 C18, 3.5 μm, 70×3.1 mm; mobile phase A: acetonitrile (0.1% phosphoric acid); mobile phase B: water (0.1% phosphoric acid); linear gradient from 10% acetonitrile to 95% acetonitrile over 8.5 min, then 95% acetonitrile for a further 3 min; oven temperature 43° C.; flow rate: 1 ml/min

[5] = young cucumber plants, protective spray, application rate 100 g/ha, evaluation 7 days after inoculation, 0% = control, 100% = no infection

Row | SMILES | pest or weed control at 500 ppm [1] | Efficacy in % [2] | also measured
1 | C/C=C/CC(C)C(=O)c1c(O)c(OC)c(OC)[nH]c1=O (stereo not drawn) [Compound I-1, 4-Hydroxy-5,6-dimethoxy-3-[(4E)-2-methylhex-4-enoyl]pyridin-2(1H)-one] | 0% | 0% | pest or weed control at 100 g/ha [3]: 77%
2 | COc1ccc(Cn2c(OC)c(OC)c(O)c(C(=O)CCCCc3ccccc3)c2=O)cc1 [Compound I-28] | 50% | – | –
3 | CCC(=O)c1c(O)c(OC)c(OC)n(Cc2ccc(OC)cc2)c1=O [Compound I-48, 4-Hydroxy-5,6-dimethoxy-1-(4-methoxybenzyl)-3-propanoylpyridin-2(1H)-one] | 63% | 57% | –
4 | COc1ccc(Cn2c(OC)c(OC)c(O)c(C(=O)c3ccc(C)cc3)c2=O)cc1 [Compound I-49] | 50% | – | –
5 | COc1[nH]c(=O)c(C(=O)c2ccc(C)cc2)c(O)c1OC [Compound I-55] | 56% | – | –
6 | COc1ccc(Cn2c(OC)c(OC)c(O)c(C(C)=O)c2=O)c(OC)c1 [Compound I-66] | – | 94% | –
7 | COc1ccc(Cn2c(O)c(OC)c(O)c(C(=O)C3CCCC3)c2=O)c(OC)c1 [Compound I-69] | 50% | – | –
8 | COc1[nH]c(=O)c(C(=O)CCc2ccccc2C)c(O)c1OC [Compound I-72] | – | 50% | –
9 | CCC(CC)CC(C)C(=O)c1c(O)c(OC)c(OC)[nH]c1=O (stereo not drawn) [Compound I-74] | – | – | pest or weed control at 100 g/ha [3]: 100%
10 | COc1ccc(Cn2c(OC)c(OC)c(O)c(C(=O)Nc3ccc(-c4ccccc4)cc3)c2=O)cc1 [Compound I-75] | – | 70% | –
11 | COc1ccc(Cn2c(OC)c(OC)c(O)c(C(=O)CCc3ccc(Oc4ccc(Cl)cc4)cc3)c2=O)cc1 [Compound I-89] | 50% | – | chromatographic logP [4]: 5.75
12 | COc1ccc(Cn2c(O)c(OC)c(O)c(C(=O)C3CCC(C)CC3)c2=O)cc1 (stereo not drawn) [Compound I-101] | 78% | – | –
13 | COc1ccc(Cn2c(OC)c(OC)c(O)c(C(=O)Cc3ccc(Br)cc3)c2=O)cc1 [Compound I-107] | 78% | – | –
14 | COc1c(O)c(C(=O)C(C)C)c(=O)n(Cc2ccccc2)c1OC [Compound I-108] | – | 67% | –
15 | COc1ccc(Cn2c(OC)c(OC)c(O)c(C(=O)C3CC=CCC3)c2=O)c(OC)c1 (stereo not drawn) [Compound I-110] | 78% | – | –
16 | COc1ccc(Cn2c(O)c(OC)c(O)c(C(=O)C3CCCCCC3)c2=O)cc1 [Compound I-111] | 89% | – | –
17 | COc1[nH]c(=O)c(C(=O)C2CCC(C)CC2)c(O)c1OC (stereo not drawn) [Compound I-121] | – | 56% | –
18 | COc1[nH]c(=O)c(C(=O)c2ccc(Cl)cc2)c(O)c1OC [Compound I-122] | 56% | – | –
19 | CCCC(C)C(=O)c1c(O)c(OC)c(OC)[nH]c1=O (stereo not drawn) [Compound I-129] | 56% | – | pest or weed control at 100 g/ha [3]: 98%
20 | COc1[nH]c(=O)c(C(=O)C2CC2)c(O)c1OC [Compound I-130] | 56% | – | –
21 | COc1[nH]c(=O)c(C(=O)C(C)CC(C)C)c(O)c1OC (stereo not drawn) [Compound I-138, 3-(2,4-Dimethylpentanoyl)-4-hydroxy-5,6-dimethoxypyridin-2(1H)-one] | – | – | pest or weed control at 100 g/ha [3, 5]: 96%

Row | SMILES | pest or weed control at 500 ppm [1] | Efficacy in % [2] | also measured
22 | CCCC(C)c1ccccc1NC(=O)c1c(O)c(OC)c(OC)[nH]c1=O (stereo not drawn) [Compound I-139] | 60% | – | –
23 | COc1[nH]c(=O)c(C(=O)C(C)Cc2ccc(C(F)(F)F)cc2)c(O)c1OC (stereo not drawn) [Compound I-141] | 70% | 80% | –
24 | COc1[nH]c(=O)c(C(=O)C(C)C2CCCCC2)c(O)c1OC (stereo not drawn) [Compound I-149] | – | 80% | –
25 | COc1[nH]c(=O)c(C(=O)C(C)CCC(C)C)c(O)c1OC (stereo not drawn) [Compound I-153] | – | 90% | –
26 | COc1ccc(Cn2c(OC)c(OC)c(O)c(C(=O)C(C)C/C=C\COCc3ccccc3)c2=O)cc1 (stereo not drawn) [Compound I-157] | – | 50% | –
27 | COc1[nH]c(=O)c(C(=O)C(C)CCCc2ccccc2)c(O)c1OC (stereo not drawn) [Compound I-158] | 60% | 50% | –
28 | COc1[nH]c(=O)c(C(=O)C(C)CC(C)Cc2ccccc2)c(O)c1OC (stereo not drawn) [Compound I-160] | – | 70% | –
29 | COc1[nH]c(=O)c(C(=O)C(C)CC2CCC(C(C)C)CC2)c(O)c1OC (stereo not drawn) [Compound I-164] | – | 90% | chromatographic logP [4]: 5.41
30 | COc1ccc(Cn2c(OC)c(OC)c(O)c(C(=O)C(C)Cc3c(Cl)cccc3Cl)c2=O)cc1 (stereo not drawn) [Compound I-172, 3-[3-(2,6-Dichlorophenyl)-2-methylpropanoyl]-4-hydroxy-5,6-dimethoxy-1-(4-methoxybenzyl)pyridin-2(1H)-one] | 71% | – | –
31 | CCCCCC(C)C(=O)c1c(O)c(OC)c(O)n(Cc2ccc(OC)cc2)c1=O (stereo not drawn) [Compound I-178, 4,6-Dihydroxy-5-methoxy-1-(4-methoxybenzyl)-3-(2-methylheptanoyl)pyridin-2(1H)-one] | 60% | – | –
32 | COc1ccc(Cn2c(O)c(OC)c(O)c(C(=O)C(C)CC(F)(F)F)c2=O)cc1 (stereo not drawn) [Compound I-180] | 50% | – | –
33 | CCCC1CCC(C(=O)c2c(O)c(OC)c(OC)n(Cc3ccc(OC)cc3)c2=O)CC1 (stereo not drawn) [Compound I-184] | – | 56% | –
34 | COc1[nH]c(=O)c(C(=O)C(C)CC(F)(F)F)c(O)c1OC (stereo not drawn) [Compound I-197] | – | – | pest or weed control at 100 g/ha [3, 5]: 100%
35 | COc1[nH]c(=O)c(C(=O)C(C)c2ccc(Cl)cc2)c(O)c1OC (stereo not drawn) [Compound I-204] | – | – | pest or weed control at 100 g/ha [3, 5]: 85%
36 | CCCCCCC(CCCC)C(=O)c1c(O)c(OC)c(OC)[nH]c1=O (stereo not drawn) [Compound I-212] | – | 71% | –
37 | CCC(C)CC(C)C(=O)c1c(O)c(OC)c(OC)[nH]c1=O (stereo not drawn) [Compound I-219] | – | 50% | –
38 | COc1[nH]c(=O)c(C(=O)c2ccc3ccccc3c2)c(O)c1OC [Compound I-221] | 80% | 93% | –
39 | COc1[nH]c(=O)c(C(=O)C(C)CCC(C)(C)C)c(O)c1OC (stereo not drawn) [Compound I-228] | – | 80% | –
40 | CCCCC(C)C(=O)c1c(O)c(OC)c(OC)[nH]c1=O (stereo not drawn) [Compound I-230] | – | 70% | pest or weed control at 100 g/ha [3]: 98%
41 | COc1[nH]c(=O)c(C(=O)C(C)CCC2CCCC2)c(O)c1OC (stereo not drawn) [Compound I-240] | – | – | pest or weed control at 100 g/ha [3, 5]: 98%
